Molecules are shown by their SMILES.

In one test the test system is Radical scavenging activity. The test can be described thus: Antioxidant activity assessed as inhibition of DPPH radical formation. The format is functional.
Usually pEC50 stands for the EC50 on a negative log10 scale, so that one unit is a factor of ten. For `Cc1sc2c(C)c(Nc3ccc(C#N)cc3)cc(C)c2c1C`, the pEC50 is reported as 2.29.
On to `COc1ccc(Nc2cc(C)c3c(C)c(C)sc3c2C)c(Br)c1`, for which the pEC50 was found to be 3.98.
Still for that read-out and setting: the value for `COc1ccc(Nc2csc3ccccc23)c(OC)c1` was 4.06.
For `Cc1cc2c(C)c(C)sc2cc1Nc1ccccc1Br`, the negative-log EC50 (pEC50) is recorded as 3.05.
On to `COc1ccc(Nc2cc3sc(C)c(C)c3cc2C)c(Br)c1`, for which the pEC50 was determined as 3.69.
The same measure, in the same setting: the value for `Cc1sc2c(C)c(Nc3ccccn3)cc(C)c2c1C` was 2.1.
The same measure, in the same setting: to `COc1ccc(Nc2cc3sc(C)c(C)c3cc2C)c(OC)c1` belongs 4.07; to `COc1cc(Br)c(Nc2cc3sc(C)c(C)c3cc2C)cc1OC`, 3.81.
`Cc1sc2c(C)c(Nc3ccccc3Br)cc(C)c2c1C`: the negative logarithm of the EC50 (pEC50) turned out to be 2.43.
On the same count and under the same terms, to `COc1ccc(Nc2cc(C)c3c(C)c(C)sc3c2C)cc1` belongs 3.89; to `CCOC(=O)c1sc2ccccc2c1Nc1ccccc1O`, 3.91; to `Cc1cc2c(C)c(C)sc2cc1Nc1ccccc1I`, 2.91.
`Cc1cc2c(C)c(C)sc2cc1Nc1ccc(C=O)cc1`: the pEC50 worked out at 2.39.
Still for that read-out and setting: to `COc1cccc(Nc2cc3sc(C)c(C)c3cc2C)c1` belongs 3.38.

For another test, the system named is Radical scavenging activity. The test can be described thus: Antioxidant activity assessed as inhibition of DPPH radical formation by Hatano's method. The format is functional.
Turning to `COc1ccc(Nc2cc3sc(C)c(C)c3cc2C)cc1`, the pEC50 came out at 4.14.
Take `COc1ccc(Nc2c(C(=O)O)sc3ccccc23)c(OC)c1`: the negative-log EC50 (pEC50) is listed as 3.61.
Still for that read-out and setting: the value for `COc1ccc(Nc2cccc3c(C)c(C)sc23)cc1OC` was 4.26.
Turning to `COc1ccc(Nc2cc3sc(C)c(C)c3cc2C)cc1OC`, the pEC50 came out at 4.3.
For `CCOC(=O)c1sc2ccccc2c1Nc1ccc(OC)cc1OC`, the negative-log EC50 (pEC50) is 3.77.
In the case of `Cc1sc2c(Nc3cccnc3)cccc2c1C`, the pEC50 worked out at 2.5.
Regarding `Cc1sc2c(Nc3ccccn3)cccc2c1C`, the negative logarithm of the EC50 (pEC50) came to 2.26.
Same read-out and setting: the value for `COc1ccc(Nc2cccc3c(C)c(C)sc23)cc1` was 4.3; that for `COc1cccc(Nc2cccc3c(C)c(C)sc23)c1` was 2.81.
With `CCOC(=O)c1sc2ccccc2c1Nc1ccc(O)cc1O`, the pEC50 amounted to 3.84.
The same measure, in the same setting: the value for `Fc1ccccc1Nc1csc2ccccc12` was 3.81; that for `Cc1sc2c(Nc3cccc(C#N)c3)cccc2c1C` was 1.84.

For the origin of these results see ChEMBL document CHEMBL1158378, “QSAR model for predicting radical scavenging activity of di(hetero)arylamines derivatives of benzo[b]thiophenes” (Eur J Med Chem, 2009).
